Measured values taken from ChEMBL document CHEMBL5620422, “Design, synthesis, and biological evaluation of a series of new anthraquinone derivatives as anti-ZIKV agents” (Eur J Med Chem, 2023).
The source made the active and inactive calls. The rule behind the calls is not given here.

Key:
Zika virus [1] = experiment: Antiviral activity against ZIKV ZG-01 infected in human SNB-19 cells assessed as reduction in IFNgamma expression at 1 to 5 uM by RT-PCR analysis; assay type: functional, organism-based; conditions: dose 1-5 µM
[2] = Toxicity in Ifnar1 knockout C57BL/6 mouse assessed as body weight loss at 60 mg/kg administered for 7 days; assay type: organism-based; conditions: in vivo, 168 h, time 7 day
Zika virus [3] = experiment: Antiviral activity against ZIKV ZG-01 infected in SNB-19 cells assessed as reduction in number of viral positive cells at 5 uM by immunofluorescence assay; assay type: functional, organism-based
JEG-3 [4] = experiment: Antiinflammatory activity in human JEG-3 cells assessed as reduction in TNFalpha expression by RT-PCR analysis; assay type: functional, cell-based
Zika virus [5] = experiment: Antiviral activity against ZIKV ZG-01 infected in JEG-3 cells assessed as reduction in viral replication at 20 uM preincubated for 1 hr followed by replacement with fresh media containing compound for 48 hrs by RT-PCR analysis; assay type: functional; design: scale not given: the % may be the effect or the level left; conditions: time 49 hrs
Zika virus [6] = experiment: Antiviral activity against ZIKV ZG-01 infected in human SNB-19 cells assessed as reduction in LDH release incubated for 36 hrs; assay type: functional, organism-based; conditions: dose 1-5 µM
Zika virus [7] = experiment: Antiviral activity against ZIKV ZG-01 infected in SNB-19 cells assessed as reduction in viral envelope protein level at 10 uM after 18 to 48 hrs by Western blot assay; assay type: functional, organism-based; conditions: time 18-48 hrs
Zika virus [8] = experiment: Antiviral activity against ZIKV ZG-01 infected in human JEG-3 cells assessed as reduction in IL-6 expression at 1 to 5 uM by RT-PCR analysis; assay type: functional, organism-based; conditions: dose 1-5 µM
Zika virus [9] = experiment: Antiviral activity against ZIKV ZG-01 infected in Ifnar1 knockout C57BL/6 mouse assessed as reduction in number of animal paralysis at 20 mg/kg, iv administered daily for 7 days; assay type: functional, organism-based; conditions: time 7.0 day
Zika virus [10] = experiment: Antiviral activity against ZIKV ZG-01 infected in Ifnar1 knockout C57BL/6 mouse assessed as reduction in mortality rate at 20 mg/kg, iv administered daily for 7 days; assay type: functional, organism-based; conditions: time 7.0 day
Zika virus [11] = experiment: Antiviral activity against ZIKV ZG-01 infected in SNB-19 cells assessed as reduction in viral envelope protein level at 1 to 20 uM after 48 hrs by Western blot assay; assay type: functional, organism-based; conditions: dose 1-20 µM
Zika virus [12] = experiment: Antiviral activity against ZIKV ZG-01 infected in A549 cells preincubated for 1 hr followed by replacement with fresh media containing compound for 48 hrs by crystal violet staining based plaque assay; assay type: functional, organism-based; conditions: time 49.0 hrs
[13] = Cytotoxicity against human SNB-19 cells assessed as reduction in cell viability incubated for 48 hrs by MTT assay; assay type: toxicity, cell-based
Zika virus [14] = experiment: Antiviral activity against ZIKV ZG-01 infected in Ifnar1 knockout C57BL/6 mouse assessed as reduction in brain viral RNA at 20 mg/kg, iv administered daily for 7 days and measured upto 12 dpi by RT-qPCR analysis; assay type: functional, organism-based; conditions: time <= 12.0 day
SNB-19 [15] = experiment: Antiinflammatory activity in human SNB-19 cells assessed as reduction in IL-6 expression by RT-PCR analysis; assay type: functional, cell-based
Zika virus [16] = experiment: Antiviral activity against ZIKV ZG-01 infected in JEG-3 cells assessed as reduction in viral envelope protein level at 10 uM after 18 to 48 hrs by Western blot assay; assay type: functional, organism-based; conditions: time 18-48 hrs
JEG-3 [17] = experiment: Antiinflammatory activity in human JEG-3 cells assessed as reduction in IFNgamma expression by RT-PCR analysis; assay type: functional, cell-based
Zika virus [18] = experiment: Antiviral activity against ZIKV ZG-01 infected in Ifnar1 knockout C57BL/6 mouse assessed as reduction in neuronal necrosis by measuring necrotic debris at 20 mg/kg, iv administered daily for 7 days and measured upto 12 dpi by H and E staining based analysis; assay type: functional, organism-based; conditions: time <= 12.0 day
HEK-293T = experiment: Effect on gaussia luciferase expression in HEK293T cells at 1 to 10 uM; assay type: functional, cell-based; conditions: Homo sapiens, dose 1-10 µM
[19] = Toxicity in Ifnar1 knockout C57BL/6 mouse assessed as corneal opacities at 60 mg/kg administered for 7 days; assay type: organism-based; conditions: in vivo, 168 h, time 7 day
Zika virus [20] = experiment: Antiviral activity against ZIKV ZG-01 infected in Vero cells assessed as reduction in viral replication at 20 uM preincubated for 1 hr followed by replacement with fresh media containing compound for 48 hrs by RT-PCR analysis; assay type: functional; design: scale not given: the % may be the effect or the level left; conditions: time 49 hrs
Zika virus [21] = experiment: Antiviral activity against ZIKV ZG-01 infected in Ifnar1 knockout C57BL/6 mouse assessed as reduction in microglia activation by measuring Iba-1 expression at 20 mg/kg, iv administered daily for 7 days by immunohistochemistry analysis; assay type: functional, organism-based; conditions: time 7.0 day
SNB-19 [22] = experiment: Antiinflammatory activity in human SNB-19 cells assessed as reduction in TNFalpha expression by RT-PCR analysis; assay type: functional, cell-based
Zika virus [23] = experiment: Antiviral activity against ZIKV ZG-01 infected in human SNB-19 cells assessed as reduction in IL-1beta release at 1 to 5 uM by ELISA; assay type: functional, organism-based; conditions: dose 1-5 µM
Zika virus [24] = experiment: Antiviral activity against ZIKV ZG-01 infected in Ifnar1 knockout C57BL/6 mouse assessed as reduction in duration of animal paralysis at 20 mg/kg, iv administered daily for 7 days; assay type: functional, organism-based; conditions: time 7.0 day
Zika virus [25] = experiment: Antiviral activity against ZIKV ZG-01 infected in SNB-19 cells preincubated for 1 hr followed by replacement with fresh media containing compound for 48 hrs by crystal violet staining based plaque assay; assay type: functional
Zika virus [26] = experiment: Antiviral activity against ZIKV ZG-01 infected in Ifnar1 knockout C57BL/6 mouse assessed as reduction in neuronal necrosis by measuring pyknosis at 20 mg/kg, iv administered daily for 7 days and measured upto 12 dpi by H and E staining based analysis; assay type: functional, organism-based; conditions: time <= 12.0 day

Question: For `C[C@]1(O)CC2=C(C[C@@]1(C)O)C(=O)c1c(O)cc(N3CCC(c4ccccc4)CC3)c(O)c1C2=O`, which Activity (Zika virus [1]) is on record?
Answer: Its Activity is “Active”.

Question: And the Activity [2]?
Answer: Its Activity is “Non-Toxic”.

Question: What about the Activity (Zika virus [3]) of the same compound?
Answer: Its Activity is “Active”.

Question: And the Activity (JEG-3 [4])?
Answer: Its Activity is “inactive”.

Question: And the Activity (Zika virus [5])?
Answer: The Activity was 100%.

Question: And the Activity (Zika virus [6])?
Answer: The Activity was “Dose-Dependent Effect”.

Question: What about the Activity (Zika virus [7]) of the same compound?
Answer: Its Activity is “Active”.

Question: And the Activity (Zika virus [8])?
Answer: The Activity was “Active”.

Question: What about the Activity (Zika virus [9]) of the same compound?
Answer: The Activity was “Active”.

Question: What about the Activity (Zika virus [10]) of the same compound?
Answer: The Activity was “Active”.

Question: What about the Activity (Zika virus [11]) of the same compound?
Answer: The Activity was “Active”.

Question: And the Activity (Zika virus [12])?
Answer: The Activity was “Dose-Dependent Effect”.

Question: And the CC50 at 48 h [13]?
Answer: Its CC50 at 48 h is 66.1 µM.

Question: And the Activity (Zika virus [14])?
Answer: The Activity was “Active”.

Question: And the Activity (SNB-19 [15])?
Answer: Its Activity is “inactive”.

Question: And the Activity (Zika virus [16])?
Answer: Its Activity is “Active”.

Question: And the Activity (JEG-3 [17])?
Answer: The Activity was “inactive”.

Question: What about the Activity (Zika virus [18]) of the same compound?
Answer: Its Activity is “Active”.

Question: What about the Activity (HEK-293T) of the same compound?
Answer: Its Activity is “inactive”.

Question: And the Activity [19]?
Answer: Its Activity is “Non-Toxic”.

Question: What about the Activity (Zika virus [20]) of the same compound?
Answer: Its Activity is 100%.

Question: And the Activity (Zika virus [21])?
Answer: Its Activity is “Active”.

Question: And the Activity (SNB-19 [22])?
Answer: Its Activity is “inactive”.

Question: And the Activity (Zika virus [23])?
Answer: Its Activity is “Active”.

Question: What about the Activity (Zika virus [24]) of the same compound?
Answer: Its Activity is “Active”.

Question: And the EC90 (Zika virus [25]; ZG-01, SNB-19, time 49 hrs)?
Answer: The EC90 was 6.4 µM.

Question: And the Activity (Zika virus [25]; time 49.0 hrs)?
Answer: Its Activity is “Dose-Dependent Effect”.

Question: And the Activity (Zika virus [26])?
Answer: The Activity was “Active”.
